Measured values: patent US20220323479A1, “COMPOSITIONS AND METHODS USING ADENOSYLCOBALAMIN” (SOCIETE DES PRODUITS NESTLE S.A., priority 2019, published 2022)

What was measured:
[1] = test system: human skeletal muscle myotubes; experiment: Oxygen consumption rate / ATP-synthase-dependent respiration (Seahorse XF96) in epibatidine-stimulated myotubes; type: cell-based; conditions: myotubes treated 3 h, stimulated with epibatidine 10 μM, oligomycin 2.5 μg/ml; vs control
Procedure: (§1) To test the effect of adenosyl B12 and methyl B12 in human muscle myotubes, oxygen consumption rate and ATP production were measured in human myotubes, differentiated from primary adult muscle cells (HSMM). HSMM were purchased from Lonza (https://bioscience.lonza.com). HSMM were isolated from the upper arm or leg muscle tissue of normal donors and used after the second passage. HSMM were seeded in 96-well plates at a density of 12000 cells per well in SKM-M medium (ZenBio). Myotubes were differentiated from HSMM by growing the cells in DMEM/F-12 (Gibco) containing 2% horse serum, for 4 days. From the second growing day, the medium was not containing B12.
Oxygen consumption was measured using a XF96 instrument (Seahorse Biosciences, North Billerica, Mass., USA). After differentiation, respiration rates were determined every 7 min at 37° C. Myotubes were stimulated with 10 μM epibatidine. […] ATP synthase-dependent respiration was calculated as the difference in respiration rate before and after the addition of oligomycin.
(§2) For treatment, compounds were directly added to the cell culture or myotubes cultures 3 hours (acute treatment) or 3 days (chronic treatment) before measurements. Custom module analysis based on Excel (Microsoft) and GraphPad Prism 7.02 (GraphPad) software was used for quantification.

[2] = test system: human skeletal muscle myotubes; experiment: Luciferase-based ATP production evoked by epibatidine in myotubes; type: cell-based; conditions: vs control
Procedure: as §1
ATP measurements were carried out using myotubes infected with the adenovirus (from Sirion biotech) expressing luciferase. Luminescence was measured at the Cytation 3 cell imaging reader (Biotek). Relative changes of ATP were measured 48 h after infection in a luminometer, in standard medium containing 145 mM NaCl, 5 mM KCl, 1 mM MgCl2, 1 mM CaCl2), 10 mM glucose and 10 mM Hepes, pH 7.4. Luciferine (5 μM) was added to promote ATP-dependent reaction and basal luminescence was normalized as 100%. ATP production was stimulated in myotubes by addition of epibatidine.
as §2

[3] = test system: oxidative phosphorylation genes in skeletal muscle; experiment: Gene-set enrichment and network analysis of skeletal muscle (tibialis anterior) RNA of treated old rats; type: in vivo, Male Wistar rats; conditions: 1 mg/kg s.c. 3 times a week, 5 months; for network analysis of regulated genes (protein-protein interactions): interaction score >0.9
Procedure: (§3) Male Wistar rats aged 3 months or 19 months were treated with adenosylcobalamin (Adenosyl-B12) or methylcobalamin (Methyl-B12) at a dose of 1 mg/kg 3 times a week during 5 months by subcutaneous injection. Control animals were injected with equivalent volumes of saline. After 5 months treatment, adult rats were defined as 8 months old rats and old (aged) animals were defined as 24 old rodents.
Total RNA was extracted from tibialis anterior using the Agencourt RNAdvance Tissue Kit. For Gene-set enrichment analysis and Network analysis, RNA quantity was measured with Ribogreen and RNA quality was checked using the Standard Sensitivity RNA Analysis Kit on a Fragment Analyzer. All cRNA targets were synthesized using the IVT plus kit and fragmented according to the Affymetrix protocol, based on the Eberwine T7 procedure. Briefly, 100 ng of total RNA were used to produce double-stranded cDNA, followed by in vitro transcription, and cRNA labeling with biotin. Gene-set enrichment analysis (GSEA) of skeletal muscle describe the significant pathway differentially expressed (FIG. 5A). For Network analysis (FIG. 5B), nodes with an interaction score >0.9 are represented in different gray levels and aggregated by biological function.

[4] = test system: aged rats; experiment: Rotarod muscle performance / locomotor coordination; type: in vivo, Male Wistar rats; conditions: 1 mg/kg s.c. 3 times a week, 5 months, vs control
Procedure: as §3
To determine muscle performance (FIG. 6), locomotor coordination was measured using rotarod device. […] The time of activity on rotarod is measured in seconds. Each animal was recorded 3 times, with a resting period of at least 10 min between each trial.

In the case of `C/C1=C2/[N-][C@H]([C@H](CC(N)=O)[C@@]2(C)CCC(=O)NC[C@H](C)OP(=O)([O-])O[C@H]2[C@@H](O)[C@@H](n3cnc4cc(C)c(C)cc43)O[C@@H]2CO)[C@]2(C)N=C(/C(C)=C3N=C(/C=C4N=C1[C@@H](CCC(N)=O)C\4(C)C)[C@@H](CCC(N)=O)[C@]\3(C)CC(N)=O)[C@@H](CCC(N)=O)[C@]2(C)CC(N)=O.[CH3-].[Co+3]` [methyl B12, methylcobalamin, reference compound], the “ATP-synthase-dependent component of the respiration” value [1] is reported as “does not increase the ATP-synthase-dependent component of the respiration”, the “epibatine-stimulated ATP production” value ([2]; acute treatment, 3 h) is reported as “not methyl B12 potentiates epibatine-stimulated ATP production” and the “network analysis of regulated genes (protein-protein interactions)” value [3] is reported as “No network representation of oxidative phosphorylation genes is possible”.

`C/C1=C2/[N-][C@H]([C@H](CC(N)=O)[C@@]2(C)CCC(=O)NC[C@@H](C)OP(=O)([O-])O[C@H]2[C@@H](O)[C@@H](n3cnc4cc(C)c(C)cc43)O[C@@H]2CO)[C@]2(C)N=C(/C(C)=C3N=C(/C=C4N=C1[C@@H](CCC(N)=O)C\4(C)C)[C@@H](CCC(N)=O)[C@]\3(C)CC(N)=O)[C@@H](CCC(N)=O)[C@]2(C)CC(N)=O.[CH2-][C@H]1O[C@@H](n2cnc3c(N)ncnc32)[C@H](O)[C@@H]1O.[Co]` [Adenosyl B12, adenosylcobalamin] was tested, and the “ATP-synthase-dependent component of the respiration” value [1] was “increases the ATP-synthase-dependent component of the respiration”, the “epibatine-stimulated ATP production” value ([2]; acute treatment, 3 h) was “potentiates epibatine-stimulated ATP production” and the “epibatine-stimulated ATP production” value ([2]; chronic treatment, 3 days) was “potentiates epibatine-stimulated ATP production”. For the same compound, the “gene expression signature of oxidative phosphorylation genes (enrichment plot analysis, GSEA)” value ([3]; Adenosyl-B12 vs Methyl-B12) was “specifically shows gene expression signature of oxidative phosphorylation genes in skeletal muscle”, the “network analysis of regulated genes (protein-protein interactions)” value [3] was “distinguished several clusters linked to mitochondrial respiratory chain complexes, oxidative phosphorylation and mitochondrial function” and the “time of activity on rod” value [4] was “significantly increased”.
